Experimental data: PubChem BioAssay AID256 (DTP/NCI, 2004)
Inconclusive results and toxic doses are left out. How the source made its calls: active means survival T/C of 150% or more; inactive means T/C below 125% in these data.

System: CD2F1 mice, L1210 leukemia ip, survival T/C
Test: NCI In Vivo Anticancer Drug Screen. Data for tumor model L1210 Leukemia (intraperitoneal) in CD2F1 (CDF1) mice
Details: higher = longer survival
In short: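 Transplantable tumor in mice; compound-treated vs vehicle-treated groups. Read-out = treated/control ratio of the measured endpoint.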

[1] = endpoint: mean survival time, dose: 100.0 mg/kg/injection, schedule: Q04DX003 (ip), vehicle: saline with Tween-80
[2] = endpoint: mean survival time, dose: 200.0 mg/kg/injection, schedule: Q04DX003 (ip), vehicle: saline with Tween-80
[3] = endpoint: mean survival time, dose: 400.0 mg/kg/injection, schedule: Q04DX003 (ip), vehicle: saline with Tween-80
[4] = endpoint: mean survival time, dose: 75.0 mg/kg/injection, schedule: Q04DX003 (ip), vehicle: saline
[5] = endpoint: mean survival time, dose: 150.0 mg/kg/injection, schedule: Q04DX003 (ip), vehicle: saline
[6] = endpoint: mean survival time, dose: 100.0 mg/kg/injection, schedule: Q04DX002 (ip), vehicle: saline with Tween-80
[7] = endpoint: mean survival time, dose: 200.0 mg/kg/injection, schedule: Q04DX002 (ip), vehicle: saline with Tween-80
[8] = endpoint: mean survival time, dose: 400.0 mg/kg/injection, schedule: Q04DX002 (ip), vehicle: saline with Tween-80
[9] = endpoint: mean survival time, dose: 50.0 mg/kg/injection, schedule: Q04DX002 (ip), vehicle: saline with Tween-80

Measured: T/C

CC[n+]1ccc(Nc2ccc(NC(=O)c3ccc(Nc4cc[n+](CC)c5ccc(N)cc45)cc3)cc2)cc1
active: endpoint: mean survival time, dose: 0.5 mg/kg/injection, schedule: Q01DX009 (ip), vehicle: water 153 % of control | endpoint: mean survival time, dose: 1.0 mg/kg/injection, schedule: Q01DX009 (ip), vehicle: saline 154 % of control | endpoint: mean survival time, dose: 1.0 mg/kg/injection, schedule: Q01DX009 (ip), vehicle: water 228 % of control | endpoint: mean survival time, dose: 2.0 mg/kg/injection, schedule: Q01DX009 (ip), vehicle: saline 243 % of control | endpoint: mean survival time, dose: 2.0 mg/kg/injection, schedule: Q01DX009 (ip), vehicle: water 224 % of control
inactive: endpoint: mean survival time, dose: 0.25 mg/kg/injection, schedule: Q01DX009 (ip), vehicle: saline 109 % of control | endpoint: mean survival time, dose: 4.0 mg/kg/injection, schedule: Q01DX009 (ip), vehicle: water 115 % of control

O=C1C(Cl)=C(Nc2cccc(Cl)c2)C(=O)c2ccccc21
inactive: endpoint: mean survival time, dose: 100.0 mg/kg/injection, schedule: Q04DX002 (ip), vehicle: other 90 % of control | endpoint: mean survival time, dose: 200.0 mg/kg/injection, schedule: Q04DX002 (ip), vehicle: other 94 % of control | endpoint: mean survival time, dose: 400.0 mg/kg/injection, schedule: Q04DX002 (ip), vehicle: other 105 % of control

CCCCCCCCCCC(=O)CC
inactive: [1] 100 % of control | [2] 102 % of control | [3] 98 % of control

CCOCCNc1ccc(S(=O)(=O)c2ccc(N)cc2)cc1N
inactive: endpoint: mean survival time, dose: 100.0 mg/kg/injection, schedule: Q01DX009 (ip), vehicle: saline 103 % of control | endpoint: mean survival time, dose: 200.0 mg/kg/injection, schedule: Q01DX009 (ip), vehicle: saline 92 % of control | endpoint: mean survival time, dose: 400.0 mg/kg/injection, schedule: Q01DX009 (ip), vehicle: saline 92 % of control

C=CC1C[N+]2(SS(=O)(=O)O)CCC1CC2C(O)c1ccnc2ccc(OC)cc12 (stereo unspecified)
inactive: [4] 100 % of control | [5] 95 % of control

O=C(O)C1=CCCc2ccc(Br)cc21
inactive: endpoint: median survival time, dose: 25.0 mg/kg/injection, schedule: Q04DX003 (ip), vehicle: saline with Tween-80 100 % of control | endpoint: median survival time, dose: 50.0 mg/kg/injection, schedule: Q04DX003 (ip), vehicle: saline with Tween-80 100 % of control | endpoint: median survival time, dose: 100.0 mg/kg/injection, schedule: Q04DX003 (ip), vehicle: saline with Tween-80 88 % of control | endpoint: median survival time, dose: 200.0 mg/kg/injection, schedule: Q04DX003 (ip), vehicle: saline with Tween-80 88 % of control

CCC(CC)(C(N)=O)C(N)=O
inactive: [6] 108 % of control | [7] 100 % of control | [8] 100 % of control

O=c1c2cccc3cccc(c4n1NC=c1ccccc1=4)c32
inactive: endpoint: mean survival time, dose: 25.0 mg/kg/injection, schedule: Q04DX002 (ip), vehicle: saline with Tween-80 100 % of control | [9] 92 % of control | [6] 96 % of control | [7] 96 % of control

Cc1ccccc1NCC#N
inactive: endpoint: mean survival time, dose: 25.0 mg/kg/injection, schedule: Q01DX009 (ip), vehicle: saline with Tween-80 101 % of control | endpoint: mean survival time, dose: 50.0 mg/kg/injection, schedule: Q01DX009 (ip), vehicle: saline with Tween-80 97 % of control | [1] 93 % of control

C[CH2][Sn]([Cl])([CH2]C)[c]1cc[c]([Sn]([Cl])([CH2]C)[CH2]C)cc1
inactive: endpoint: median survival time, dose: 0.06 mg/kg/injection, schedule: Q01DX005 (ip), vehicle: Klucel (hydroxypropylcellulose) (HPC) 103 % of control | endpoint: median survival time, dose: 0.12 mg/kg/injection, schedule: Q01DX005 (ip), vehicle: Klucel (hydroxypropylcellulose) (HPC) 112 % of control | endpoint: median survival time, dose: 3.8 micrograms/kg/injection, schedule: Q01DX005 (ip), vehicle: Klucel (hydroxypropylcellulose) (HPC) 103 % of control | endpoint: median survival time, dose: 7.5 micrograms/kg/injection, schedule: Q01DX005 (ip), vehicle: Klucel (hydroxypropylcellulose) (HPC) 100 % of control | endpoint: median survival time, dose: 15.0 micrograms/kg/injection, schedule: Q01DX005 (ip), vehicle: Klucel (hydroxypropylcellulose) (HPC) 102 % of control | endpoint: median survival time, dose: 30.0 micrograms/kg/injection, schedule: Q01DX005 (ip), vehicle: Klucel (hydroxypropylcellulose) (HPC) 98 % of control | endpoint: median survival time, dose: 60.0 micrograms/kg/injection, schedule: Q01DX005 (ip), vehicle: Klucel (hydroxypropylcellulose) (HPC) 103 % of control | endpoint: median survival time, dose: 120.0 micrograms/kg/injection, schedule: Q01DX005 (ip), vehicle: Klucel (hydroxypropylcellulose) (HPC) 109 % of control

CS(=O)(=O)OCCn1c(=O)n(CCOS(C)(=O)=O)c(=O)n(CCOS(C)(=O)=O)c1=O
inactive: [1] 102 % of control | [2] 98 % of control | [3] 93 % of control

N#CSCc1ccc(CSC#N)c(Br)c1
inactive: [4] 102 % of control | [5] 98 % of control | endpoint: mean survival time, dose: 300.0 mg/kg/injection, schedule: Q04DX003 (ip), vehicle: saline 101 % of control

CC12CCC3C4CCC(=O)C(CCC(=O)O)=C4CCC3(CO1)C2 (stereo unspecified)
inactive: endpoint: mean survival time, dose: 100.0 mg/kg/injection, schedule: Q01DX001 (ip), vehicle: saline with Tween-80 102 % of control | endpoint: mean survival time, dose: 200.0 mg/kg/injection, schedule: Q01DX001 (ip), vehicle: saline with Tween-80 95 % of control | endpoint: mean survival time, dose: 400.0 mg/kg/injection, schedule: Q01DX001 (ip), vehicle: saline with Tween-80 94 % of control

O=C1CC(c2ccccc2)CO1 (stereo unspecified)
inactive: endpoint: mean survival time, dose: 100.0 mg/kg/injection, schedule: Q01DX001 (ip), vehicle: saline 106 % of control | endpoint: mean survival time, dose: 200.0 mg/kg/injection, schedule: Q01DX001 (ip), vehicle: saline 100 % of control

Cc1cccc(C(=O)C(=O)c2cccc(C)c2C)c1C
inactive: endpoint: mean survival time, dose: 75.0 mg/kg/injection, schedule: Q01DX001 (ip), vehicle: other 93 % of control | endpoint: mean survival time, dose: 150.0 mg/kg/injection, schedule: Q01DX001 (ip), vehicle: other 93 % of control | endpoint: mean survival time, dose: 300.0 mg/kg/injection, schedule: Q01DX001 (ip), vehicle: other 100 % of control

CC(=O)CC(=O)c1ccccc1.CC(=O)CC(=O)c1ccccc1.[Pd]
inactive: endpoint: mean survival time, dose: 3.13 mg/kg/injection, schedule: Q04DX003 (ip), vehicle: distilled water + Tween-80 98 % of control | endpoint: mean survival time, dose: 6.25 mg/kg/injection, schedule: Q04DX003 (ip), vehicle: distilled water + Tween-80 89 % of control | endpoint: mean survival time, dose: 12.5 mg/kg/injection, schedule: Q04DX003 (ip), vehicle: distilled water + Tween-80 100 % of control | endpoint: mean survival time, dose: 25.0 mg/kg/injection, schedule: Q04DX003 (ip), vehicle: distilled water + Tween-80 86 % of control | endpoint: mean survival time, dose: 50.0 mg/kg/injection, schedule: Q04DX003 (ip), vehicle: distilled water + Tween-80 87 % of control | endpoint: mean survival time, dose: 100.0 mg/kg/injection, schedule: Q04DX003 (ip), vehicle: distilled water + Tween-80 89 % of control | endpoint: mean survival time, dose: 200.0 mg/kg/injection, schedule: Q04DX003 (ip), vehicle: distilled water + Tween-80 93 % of control

O=C(CCCC(=O)c1ccccc1)OC1(c2ccccc2)CCCC(=O)O1 (stereo unspecified)
inactive: [9] 98 % of control | [6] 98 % of control | [7] 94 % of control

CC(C)CCCC(C)C1CCC2C3=CCC4CC(OC(=O)CCC(C)C)CCC4(C)C3CCC21C (stereo unspecified)
inactive: [1] 101 % of control | [2] 96 % of control | [3] 104 % of control

CC(=O)OC1CCC2C3CCC4=C(Cl)C(=O)CCC4C3CCC12C (stereo unspecified)
inactive: endpoint: mean survival time, dose: 100.0 mg/kg/injection, schedule: Q04DX003 (sc), vehicle: steriod suspending solution 98 % of control | endpoint: mean survival time, dose: 200.0 mg/kg/injection, schedule: Q04DX003 (sc), vehicle: steriod suspending solution 97 % of control | endpoint: mean survival time, dose: 400.0 mg/kg/injection, schedule: Q04DX003 (sc), vehicle: steriod suspending solution 106 % of control

Cc1nc(-c2cccc(Cl)c2)oc1-c1ccccc1
inactive: [6] 115 % of control | [7] 121 % of control

O=c1[nH]ncc2c(C3OC(CO)C(O)C3O)cnn12 (stereo unspecified)
inactive: endpoint: median survival time, dose: 4.75 mg/kg/injection, schedule: Q01DX005 (ip), vehicle: distilled water + Tween-80 109 % of control | endpoint: median survival time, dose: 9.5 mg/kg/injection, schedule: Q01DX005 (ip), vehicle: distilled water + Tween-80 100 % of control | endpoint: median survival time, dose: 19.0 mg/kg/injection, schedule: Q01DX005 (ip), vehicle: distilled water + Tween-80 106 % of control | endpoint: median survival time, dose: 38.0 mg/kg/injection, schedule: Q01DX005 (ip), vehicle: distilled water + Tween-80 102 % of control | endpoint: median survival time, dose: 76.0 mg/kg/injection, schedule: Q01DX005 (ip), vehicle: distilled water + Tween-80 98 % of control

Nc1nc(N)c2cc(CNc3ccc(C(=O)NC(CC(=O)O)CC(=O)O)cc3)cnc2n1
inactive: endpoint: mean survival time, dose: 50.0 mg/kg/injection, schedule: Q01DX009 (ip), vehicle: Klucel (hydroxypropylcellulose) (HPC) 94 % of control | endpoint: mean survival time, dose: 100.0 mg/kg/injection, schedule: Q01DX009 (ip), vehicle: Klucel (hydroxypropylcellulose) (HPC) 98 % of control

COc1ccc(N(C)C/C(CN)=N/O)cc1
inactive: endpoint: mean survival time, dose: 100.0 mg/kg/injection, schedule: Q01DX001 (ip), vehicle: Klucel (hydroxypropylcellulose) (HPC) 97 % of control | endpoint: mean survival time, dose: 200.0 mg/kg/injection, schedule: Q01DX001 (ip), vehicle: Klucel (hydroxypropylcellulose) (HPC) 102 % of control

Cc1cccc(OP(N)(=O)Oc2cccc(C)c2)c1
inactive: [6] 96 % of control | [7] 96 % of control | [8] 96 % of control

CC(C)(C)C1(C)CC1(Br)Br (stereo unspecified)
inactive: [1] 105 % of control | [2] 96 % of control
